# Data published in article PMC10831936 (iScience, 2024).
# Columns and labels:
# A-431 cells = tested on: A-431 cells; parameters: method as in Li et al., 2017; details: Proliferation assay, SRB method, ref Li et al., 2017, read-out: IC50_Literature, EGFR; cited from earlier work
# calcium = test: Fluo-4 AM calcium assay in PC12 cells; type: cell-based, Rattus norvegicus; details: stimulation mix
# ERBB4 NFAT = test: ERBBprofiler barcoded NFAT pathway sensor, ERBB4 co-transfected; type: cell-based, Rattus norvegicus; details: PC12 cells; constant EGF 30 ng/mL, EGFld 10 ng/mL, serotonin 1 μM; 6 h; barcode readout; relative IC50
# CRE sensor = CRE sensor only luciferase assay in PC12 cells; type: cell-based, Rattus norvegicus
# EGFR NFAT = test: ERBBprofiler barcoded NFAT pathway sensor, EGFR co-transfected; type: cell-based, Rattus norvegicus; details: PC12 cells; constant EGF 30 ng/mL, EGFld 10 ng/mL, serotonin 1 μM; 6 h; barcode readout; relative IC50
# HTR2A NFAT = test: ERBBprofiler barcoded NFAT pathway sensor, HTR2A co-transfected; details: Rattus norvegicus, PC-12, 6 h, read-out: HTR2A NFAT IC50
# phospho-ERBB4 = target: T1, phospho-ERBB4 (Homo sapiens, UniProt Q15303); test: Western blot of p-ERBB4 in T-47D cells; type: cell-based; details: compound 1 h, EGFld 10 ng/mL 5 min, read-out: p-ERBB4 IC50, Western blot quantification
# T1 construct: T-47D cells, which endogenously express ERBB4; host or cells: T-47D cells
# T1 sequence (Q15303 26-1308): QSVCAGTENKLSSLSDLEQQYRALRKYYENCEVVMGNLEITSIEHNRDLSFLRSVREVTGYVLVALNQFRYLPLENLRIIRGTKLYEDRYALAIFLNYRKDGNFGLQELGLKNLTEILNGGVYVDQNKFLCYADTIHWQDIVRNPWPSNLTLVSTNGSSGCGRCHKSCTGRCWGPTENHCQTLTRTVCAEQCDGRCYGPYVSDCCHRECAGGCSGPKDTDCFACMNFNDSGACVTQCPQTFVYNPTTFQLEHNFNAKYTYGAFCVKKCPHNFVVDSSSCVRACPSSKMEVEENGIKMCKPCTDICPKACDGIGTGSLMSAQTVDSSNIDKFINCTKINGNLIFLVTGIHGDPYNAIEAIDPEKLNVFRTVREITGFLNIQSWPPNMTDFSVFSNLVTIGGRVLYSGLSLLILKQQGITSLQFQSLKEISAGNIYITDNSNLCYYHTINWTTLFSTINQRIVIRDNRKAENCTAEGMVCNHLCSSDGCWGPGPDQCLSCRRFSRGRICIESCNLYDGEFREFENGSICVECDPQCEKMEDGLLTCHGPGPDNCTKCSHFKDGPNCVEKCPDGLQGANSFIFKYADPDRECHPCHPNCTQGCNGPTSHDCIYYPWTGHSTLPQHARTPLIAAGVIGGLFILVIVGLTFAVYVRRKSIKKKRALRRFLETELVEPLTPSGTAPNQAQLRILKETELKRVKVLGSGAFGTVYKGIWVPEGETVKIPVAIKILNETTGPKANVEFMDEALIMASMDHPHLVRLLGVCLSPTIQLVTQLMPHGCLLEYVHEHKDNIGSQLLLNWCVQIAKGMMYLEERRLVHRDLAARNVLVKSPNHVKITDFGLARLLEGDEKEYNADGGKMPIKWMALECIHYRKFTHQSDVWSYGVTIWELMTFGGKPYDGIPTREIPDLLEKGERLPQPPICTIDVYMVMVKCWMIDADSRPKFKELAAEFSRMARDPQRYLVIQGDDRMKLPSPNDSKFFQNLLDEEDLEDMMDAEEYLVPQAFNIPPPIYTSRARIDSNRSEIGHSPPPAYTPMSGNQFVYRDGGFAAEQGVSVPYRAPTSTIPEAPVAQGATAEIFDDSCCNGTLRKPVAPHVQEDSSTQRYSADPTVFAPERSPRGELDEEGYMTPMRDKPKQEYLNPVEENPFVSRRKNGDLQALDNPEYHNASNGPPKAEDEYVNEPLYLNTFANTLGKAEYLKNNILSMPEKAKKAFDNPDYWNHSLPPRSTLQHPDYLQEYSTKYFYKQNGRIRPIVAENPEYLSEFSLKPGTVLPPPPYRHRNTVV
# Method: Phosphorylation levels of EGFR were assessed[37] in A549 cells, while phosphorylation levels of ERBB4 were assessed in T-47D cells. Before stimulation experiments were performed, both cell types were starved overnight in 1% FCS and compounds were incubated for 1 h. […] For lysis, cells were washed 1x with PBS and lysed in a Triton X- lysis buffer (1% Triton X-100, 50 mM Tris pH7.5, 150 mM NaCl, 1 mM EGTA) containing the Complete protease inhibitor cocktail (Roche) and PhosSTOP phosphatase inhibitor (Roche). Briefly, cells were lysed and kept on ice for 10 min, sonicated 3x for 10 s at 4°C, and denatured for 10 min at 70°C. The Mini-PROTEAN Tetra Electrophoresis System and Trans-Blot Turbo Botting System (both Bio-Rad) were used for running and blotting protein gels. […] Total EGFR and ERBB4 protein levels were determined using an anti-EGFR antibody (RRID: AB_10920395) (clone A-10, dilution 1:1000, sc-373746, Santa Cruz Biotechnology) and an anti-ERBB4 antibody (RRID: AB_731579) (clone E200, dilution 1:1000, ab32375, Abcam). […] Tubulin levels were determined using an anti-Tubulin antibody (RRID: AB_477579) (dilution 1:2000, No. T 5168, Sigma-Aldrich). For quantification, phosphorylation levels of p-EGFR relative to EGFR as well as p-ERBB4 relative to ERBB4 were calculated using the Lukemiller protocol (http://lukemiller.org/index.php/2010/11/analyzing-gels-and-western-blots-with-image-j/). […]
# [1] = tested on: SK–BR–3 cells and NCI-N87 cells; parameters: method as in Li et al., 2017; details: Proliferation assay, SRB method, ref Li et al., 2017, read-out: IC50_Literature, ERBB2; cited from earlier work
# ERBB3 = tested on: ERBB3; parameters: method as in Boateng et al., 2021; details: ELISA in MCF-7 cells; ref Boateng et al., 2021; read-out: IC50_Literature, ERBB3; cited from earlier work
# HTR2A CRE = test: ERBBprofiler barcoded CRE pathway sensor, HTR2A co-transfected; details: Rattus norvegicus, PC-12, 6 h, read-out: HTR2A CRE IC50
# [2] = tested on: SkBr3, BT474 and HER2-overexpressing ovarian cancer cells SkOV3; parameters: method as in Moasser et al., 2001; details: cell growth assay in SkBr3, BT474 and SkOV3 cells; ref Moasser et al., 2001; read-out: IC50_Literature, ERBB2; cited from earlier work
# EGFR CRE = test: ERBBprofiler barcoded CRE pathway sensor, EGFR co-transfected; details: PC12 cells; constant EGF 30 ng/mL, EGFld 10 ng/mL, serotonin 1 μM; 6 h; barcode readout; relative IC50
# ERBB4 CRE = test: ERBBprofiler barcoded CRE pathway sensor, ERBB4 co-transfected; details: PC12 cells; constant EGF 30 ng/mL, EGFld 10 ng/mL, serotonin 1 μM; 6 h; barcode readout; relative IC50
# EGFR = tested on: EGFR; parameters: method as in Fry et al., 1994; details: phospho-WB in A-431 cells; ref Fry et al., 1994; read-out: IC50_Literature, EGFR; cited from earlier work
"EC50 (CRE sensor; Rattus norvegicus, PC-12)",IC50 (HTR2A NFAT),IC50 (phospho-ERBB4),IC50 (HTR2A CRE),SMILES,IC50 (A-431 cells),effect on calcium levels (Fluo-4 AM) (calcium),ERBB4 NFAT IC50 (ERBB4 NFAT),"effect on CRE sensor activity (luciferase), in words (CRE sensor; PC12 cells, CRE sensor only, stimulation mix)",EGFR NFAT IC50 (EGFR NFAT),IC50 [1],IC50 (ERBB3),IC50 [2],EGFR CRE IC50 (EGFR CRE),ERBB4 CRE IC50 (ERBB4 CRE),IC50 (EGFR)
1380 nM,576 nM,344 nM,,CCOc1cc2ncc(C#N)c(Nc3ccc(OCc4ccccn4)c(Cl)c3)c2cc1NC(=O)/C=C/[C@H]1CCCN1C [Pyrotinib],45 nM,but not calcium levels,"no effect (EGFR, ERBB2/3, ERBB4) - 0.576 µM (HTR2A, small effect)",CRE sensor activation at high compound concentrations,"no effect (EGFR, ERBB2/3, ERBB4) - 0.576 µM (HTR2A, small effect)",39 to 42 nM,,,,,
,64 nM,100 nM,31 nM,"COc1cc2ncnc(Nc3cccc(Cl)c3)c2cc1OC [AG1478, AG-1478 (Tyrphostin AG-1478)]",,did not cause any increase,,,,,857 nM,300 to 2000 nM,"no effect (EGFR, ERBB2/3, ERBB4); 0.031 µM (HTR2A, small effect)","no effect (EGFR, ERBB2/3, ERBB4); 0.031 µM (HTR2A, small effect)",[…]
